Assays:
Test in all cases: relative viability (nuclei count vs DMSO), 5 days (fraction); higher = more cells survive
NCI-H2085 = system: NCI-H2085
Method in brief: (§1)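 Dosing by pin tool came one day after lung cancer cell lines were seeded in 1536-well plates, using either one drug or a fixed anchor-drug dose plus five library-drug doses (not always all listed) in √10 steps. After 5 days, nuclei were counted on 4× images. Relative viability is treated-well nuclei count divided by vehicle-well nuclei count, and values are medians of duplicate plates.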

A-427 = system: A-427
Method in brief: as §1

HARA = system: HARA
Method in brief: as §1

NCI-H596 = system: NCI-H596
Method in brief: as §1

NCI-H661 = system: NCI-H661
Method in brief: as §1

NCI-H2126 = system: NCI-H2126
Method in brief: as §1

NCI-H1651 = system: NCI-H1651
Method in brief: as §1

NCI-H520 = system: NCI-H520
Method in brief: as §1

ABC-1 = system: ABC-1
Method in brief: as §1

NCI-H460 = system: NCI-H460
Method in brief: as §1

RERF-LC-KJ = system: RERF-LC-KJ
Method in brief: as §1

NCI-H727 = system: NCI-H727
Method in brief: as §1

NCI-H1666 = system: NCI-H1666
Method in brief: as §1

BEN = system: BEN
Method in brief: as §1

NCI-H1734 = system: NCI-H1734
Method in brief: as §1

LOU-NH91 = system: LOU-NH91
Method in brief: as §1

NCI-H647 = system: NCI-H647
Method in brief: as §1

NCI-H1975 = system: NCI-H1975
Method in brief: as §1

LCLC-103H = system: LCLC-103H
Method in brief: as §1

CAL-12T = system: CAL-12T
Method in brief: as §1

NCI-H838 = system: NCI-H838
Method in brief: as §1

NCI-H1944 = system: NCI-H1944
Method in brief: as §1

Structure (SMILES): CN1CCN(CCOc2cc(OC3CCOCC3)c3c(Nc4c(Cl)ccc5c4OCO5)ncnc3c2)CC1 [Saracatinib] + CS(=O)(=O)N1CCN(Cc2cc3nc(-c4cccc5[nH]ncc45)nc(N4CCOCC4)c3s2)CC1 [Pictilisib] (partner 1 µM)
- relative viability (NCI-H2085; first compound 0.02 µM): 0.474
- relative viability (NCI-H2085; first compound 0.2 µM): 0.345
- relative viability (NCI-H2085; first compound 0.6325 µM): 0.481
- relative viability (NCI-H2085; first compound 2 µM): 0.377
- relative viability (A-427; first compound 0.02 µM): 0.652
- relative viability (A-427; first compound 0.2 µM): 0.571
- relative viability (A-427; first compound 0.6325 µM): 0.767
- relative viability (A-427; first compound 2 µM): 0.616
- relative viability (HARA; first compound 0.02 µM): 0.37
- relative viability (HARA; first compound 0.6325 µM): 0.374
- relative viability (HARA; first compound 2 µM): 0.118
- relative viability (NCI-H596; first compound 0.02 µM): 0.218
- relative viability (NCI-H596; first compound 0.2 µM): 0.429
- relative viability (NCI-H596; first compound 0.6325 µM): 0.435
- relative viability (NCI-H596; first compound 2 µM): 0.319
- relative viability (NCI-H661; first compound 0.02 µM): 0.452
- relative viability (NCI-H661; first compound 0.2 µM): 0.271
- relative viability (NCI-H661; first compound 0.6325 µM): 0.314
- relative viability (NCI-H661; first compound 2 µM): 0.241
- relative viability (NCI-H2126; first compound 0.02 µM): 0.475
- relative viability (NCI-H2126; first compound 0.2 µM): 0.498
- relative viability (NCI-H2126; first compound 0.6325 µM): 0.529
- relative viability (NCI-H2126; first compound 2 µM): 0.429
- relative viability (NCI-H1651; first compound 0.02 µM): 0.507
- relative viability (NCI-H1651; first compound 0.2 µM): 0.499
- relative viability (NCI-H1651; first compound 0.6325 µM): 0.563
- relative viability (NCI-H1651; first compound 2 µM): 0.5
- relative viability (NCI-H520; first compound 0.02 µM): 0.321
- relative viability (NCI-H520; first compound 0.2 µM): 0.263
- relative viability (NCI-H520; first compound 0.6325 µM): 0.273
- relative viability (NCI-H520; first compound 2 µM): 0.228
- relative viability (ABC-1; first compound 0.02 µM): 0.695
- relative viability (ABC-1; first compound 0.2 µM): 0.938
- relative viability (ABC-1; first compound 0.6325 µM): 0.85
- relative viability (ABC-1; first compound 2 µM): 0.822
- relative viability (NCI-H460; first compound 0.02 µM): 0.367
- relative viability (NCI-H460; first compound 0.6325 µM): 0.242
- relative viability (NCI-H460; first compound 2 µM): 0.286
- relative viability (RERF-LC-KJ; first compound 0.02 µM): 0.503
- relative viability (RERF-LC-KJ; first compound 0.2 µM): 0.521
- relative viability (RERF-LC-KJ; first compound 0.6325 µM): 0.604
- relative viability (RERF-LC-KJ; first compound 2 µM): 0.362
- relative viability (NCI-H727; first compound 0.02 µM): 0.295
- relative viability (NCI-H727; first compound 0.2 µM): 0.423
- relative viability (NCI-H727; first compound 0.6325 µM): 0.354
- relative viability (NCI-H727; first compound 2 µM): 0.407
- relative viability (NCI-H1666; first compound 0.02 µM): 0.493
- relative viability (NCI-H1666; first compound 0.2 µM): 0.413
- relative viability (NCI-H1666; first compound 0.6325 µM): 0.563
- relative viability (NCI-H1666; first compound 2 µM): 0.469
- relative viability (BEN; first compound 0.02 µM): 0.57
- relative viability (BEN; first compound 0.2 µM): 0.56
- relative viability (BEN; first compound 0.6325 µM): 0.573
- relative viability (BEN; first compound 2 µM): 0.427
- relative viability (NCI-H1734; first compound 0.02 µM): 0.475
- relative viability (NCI-H1734; first compound 0.6325 µM): 0.435
- relative viability (NCI-H1734; first compound 2 µM): 0.387
- relative viability (LOU-NH91; first compound 0.02 µM): 0.535
- relative viability (LOU-NH91; first compound 0.2 µM): 0.442
- relative viability (LOU-NH91; first compound 0.6325 µM): 0.502
- relative viability (LOU-NH91; first compound 2 µM): 0.437
- relative viability (NCI-H647; first compound 0.02 µM): 0.386
- relative viability (NCI-H647; first compound 0.2 µM): 0.387
- relative viability (NCI-H647; first compound 0.6325 µM): 0.425
- relative viability (NCI-H647; first compound 2 µM): 0.216
- relative viability (NCI-H1975; first compound 0.02 µM): 0.331
- relative viability (NCI-H1975; first compound 0.6325 µM): 0.298
- relative viability (NCI-H1975; first compound 2 µM): 0.174
- relative viability (LCLC-103H; first compound 0.02 µM): 0.547
- relative viability (LCLC-103H; first compound 0.2 µM): 0.671
- relative viability (LCLC-103H; first compound 0.6325 µM): 0.649
- relative viability (LCLC-103H; first compound 2 µM): 0.455
- relative viability (CAL-12T; first compound 0.02 µM): 0.428
- relative viability (CAL-12T; first compound 0.2 µM): 0.399
- relative viability (CAL-12T; first compound 0.6325 µM): 0.491
- relative viability (CAL-12T; first compound 2 µM): 0.255
- relative viability (NCI-H838; first compound 0.02 µM): 0.351
- relative viability (NCI-H838; first compound 0.2 µM): 0.447
- relative viability (NCI-H838; first compound 0.6325 µM): 0.344
- relative viability (NCI-H838; first compound 2 µM): 0.326
- relative viability (NCI-H1944; first compound 0.02 µM): 0.335
- relative viability (NCI-H1944; first compound 0.6325 µM): 0.288
- relative viability (NCI-H1944; first compound 2 µM): 0.278
